{"source": "patent US11707447B1", "key": {"[1]": {"assay": "Mouse pharmacokinetic (PK) evaluation of drug metabolism to psilocin", "conditions": "mean ± SD"}, "[2]": {"assay": "in vitro", "type": "in vitro ADME, human", "text": "(§1) A fundamental evaluation in drug development is the assessment of absorption, distribution, metabolism, excretion, and pharmacokinetics (ADME/PK) (Eddershaw et al., 2000, Drug Discovery Today 5(9): 409-414). […] Drug stability upon exposure to human liver microsomes and liver S9 cellular fractions is a common in vitro assay to approximate in vivo, liver-based drug metabolism (Richardson et al., 2016 Drug Metabolism Letters 10:83-90). First-pass metabolism is also often approximated in vitro using intestinal microsome and cellular S9 fractions (Hatley et al., 2017, Biopharmaceuticals & Drug Disposition, 38(2):155-160). Further, it is well known that human serum, and particularly circulating serum esterases can contribute to systemic drug metabolism (Williams, F M 1987, Pharmacology and Therapeutics, 34:99-109). Many pharmacological agents are classified as prodrugs, as they undergo metabolic transformation in vivo upon administration to release the active drug compound into the systemic compartment (Zawilska J B, et al. 2013, Pharmacological Reports, 65:1-14). Psilocybin, a serotonergic psychedelic agent, is well known prodrug that is metabolized into the psychoactive product, psilocin (Dinis-Oliveira, R J 2017, Drug Metabolism Reviews, 49(1):84-91). To evaluate the capacity of test molecules to similarly serve as prodrugs of psilocin, time-dependent, metabolic stability assays using human AB serum, human intestinal microsomes (HIM), human intestinal S9 fractions (HIS9), human liver microsomes (HLM), human liver S9 fractions (HLS9), human alkaline phosphatase, and porcine esterase were performed. […] Liquid chromatography coupled mass spectrometry (LC-MS) was employed to track the conversion of the test molecules into psilocin. All intestinal and liver fractions and NADPH RapidStart reagent was purchased from Sekisui/XenoTech. Human AB serum was purchased from Sigma. For intestine and liver metabolism assays, 2.5 μM candidate compounds were incubated in 400 μg/ml of each cellular fraction (HLM, HLS9, HIM, or HIS9) in 50 mM potassium phosphate buffer (pH 7.4) containing 3 mM MgCl2 and 1 mM EDTA supplemented with NADPH RapidStart at 37° C. Samples were taken at the start of the assay, and at every 20 minutes for 2 hours. Time-point samples were precipitated with 1:1 volume of acetonitrile to quench the reaction before centrifugation at 4000×g for 20 minutes. Supernatants were analyzed for the presence of candidate prodrugs (parent molecule) and psilocin (the predicted metabolite) using Orbitrap LC-MS (Thermo Scientific) using previously described methods (Menéndez-Perdomo et al., 2021, J. Mass Spectrom., 56: e4683). The serum assays were carried out in 10% human AB serum in 50 mM potassium phosphate buffer (pH 7.4) containing 3 mM MgCl2 and 1 mM EDTA. Bovine alkaline phosphatase assays were carried out using one unit of purified enzyme in 50 mM potassium phosphate buffer (pH 7.4) containing 3 mM MgCl2 and 1 mM EDTA. Porcine esterase assays were carried out using one unit of purified enzyme in 50 mM potassium phosphate buffer (pH 7.4) containing 3 mM MgCl2 and 1 mM EDTA. Assay concentrations (μM) of both parent ‘prodrug’ molecule and psilocin metabolite, as quantified through LC-MS using routine standard curve procedures, were plotted as functions of assay time (minutes). The metabolism rate (T1/2) was determined from the metabolism curve plot using the one phase decay feature of GraphPad PRISM software (Version 9.2.0). The quantity of parent prodrug at time zero was set as 100%.\nPositive controls were first tested to ensure that assays were functioning properly."}, "[3]": {"assay": "In vitro metabolic stability / psilocin release, human AB serum", "type": "in vitro ADME", "conditions": "AB serum", "text": "as §1, with “For intestine and liver metabolism assays, 2.5 μM candidate compounds were incubated in 400 μg/ml of each cellular fraction (HLM, HLS9, HIM, or HIS9) in 50 mM potassium phosphate buffer (pH 7.4) containing 3 mM MgCl2 and 1 mM EDTA supplemented with NADPH RapidStart at 37° C. Samples were taken at the start of the assay, and at every 20 minutes for 2 hours. Time-point samples were precipitated with 1:1 volume of acetonitrile to quench the reaction before centrifugation at 4000×g for 20 minutes.” left out, “The serum assays were carried out in 10% human AB serum in 50 mM potassium phosphate buffer (pH 7.4) containing 3 mM MgCl2 and 1 mM EDTA. Bovine alkaline phosphatase assays were carried out using one unit of purified enzyme in 50 mM potassium phosphate buffer (pH 7.4) containing 3 mM MgCl2 and 1 mM EDTA. Porcine esterase assays were carried out using one unit of purified enzyme in 50 mM potassium phosphate buffer (pH 7.4) containing 3 mM MgCl2 and 1 mM EDTA.” left out, “100%. […]” for “100%.”"}, "[4]": {"target": "T1, 5-HT2A receptor (Mus musculus, UniProt P35363)", "T1 construct": "tissue Charles River; host or cells: whole animal, C57BL/6-Elite mice (brain neurons)", "T1 sequence (P35363 whole entry)": "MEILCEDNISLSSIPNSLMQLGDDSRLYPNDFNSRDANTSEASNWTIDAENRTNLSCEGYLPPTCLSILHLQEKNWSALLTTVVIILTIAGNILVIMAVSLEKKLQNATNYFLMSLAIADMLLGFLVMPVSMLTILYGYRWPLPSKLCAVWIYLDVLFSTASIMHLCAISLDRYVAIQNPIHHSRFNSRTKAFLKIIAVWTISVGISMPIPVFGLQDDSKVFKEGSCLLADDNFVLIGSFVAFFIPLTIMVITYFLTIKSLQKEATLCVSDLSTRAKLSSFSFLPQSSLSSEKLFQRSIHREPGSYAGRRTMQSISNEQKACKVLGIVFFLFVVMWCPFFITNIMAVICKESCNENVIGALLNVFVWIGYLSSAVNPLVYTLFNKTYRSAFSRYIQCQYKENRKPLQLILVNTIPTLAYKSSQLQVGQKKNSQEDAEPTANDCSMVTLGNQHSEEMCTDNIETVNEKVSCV", "assay": "Drug-induced Head Twitch Response (HTR) in mice", "type": "in vivo", "conditions": "1 mg/kg i.p., 15-to-30-minute window after dosing, vs vehicle"}, "[5]": {"target": "T2, 5-HT1A receptor (Homo sapiens, UniProt P08908)", "T2 construct": "host or cells: CHO-K1 (co-expressing Ga15)", "T2 sequence (P08908 1-422)": "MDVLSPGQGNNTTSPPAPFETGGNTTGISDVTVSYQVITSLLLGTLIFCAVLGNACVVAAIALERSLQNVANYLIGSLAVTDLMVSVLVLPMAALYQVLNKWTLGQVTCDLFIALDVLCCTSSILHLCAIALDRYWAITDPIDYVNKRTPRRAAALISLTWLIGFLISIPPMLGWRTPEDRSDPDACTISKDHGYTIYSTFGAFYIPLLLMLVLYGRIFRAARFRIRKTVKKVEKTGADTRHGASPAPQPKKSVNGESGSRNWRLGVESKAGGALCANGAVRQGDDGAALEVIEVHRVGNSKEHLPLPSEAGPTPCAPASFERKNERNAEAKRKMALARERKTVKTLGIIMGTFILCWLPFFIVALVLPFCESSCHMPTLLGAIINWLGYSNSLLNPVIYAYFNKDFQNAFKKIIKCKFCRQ", "assay": "cAMP-Glo assay in +5-HT1A / -5-HT1A CHO-K1 cells", "type": "cell-based", "conditions": "forskolin-stimulated +5-HT1A vs -5-HT1A cells, increasing ligand"}, "[6]": {"target": "5-HT2A receptor (Homo sapiens, UniProt P28223)", "sequence (P28223 whole entry)": "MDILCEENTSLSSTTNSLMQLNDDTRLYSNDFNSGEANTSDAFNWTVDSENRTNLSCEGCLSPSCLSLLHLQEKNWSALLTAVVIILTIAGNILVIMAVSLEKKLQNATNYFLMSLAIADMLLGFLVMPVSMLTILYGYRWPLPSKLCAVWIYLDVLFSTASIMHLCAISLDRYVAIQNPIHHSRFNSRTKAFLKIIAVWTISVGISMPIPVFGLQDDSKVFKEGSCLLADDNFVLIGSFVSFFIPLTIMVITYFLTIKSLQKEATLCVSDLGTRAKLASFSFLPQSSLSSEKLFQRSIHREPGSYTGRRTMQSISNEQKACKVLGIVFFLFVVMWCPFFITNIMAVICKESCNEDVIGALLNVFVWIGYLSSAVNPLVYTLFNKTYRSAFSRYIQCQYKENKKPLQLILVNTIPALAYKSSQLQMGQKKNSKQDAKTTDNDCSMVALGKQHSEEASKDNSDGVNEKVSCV", "assay": "[3H]ketanserin competition radioligand binding assay (SPA)", "conditions": "control ligands"}, "[7]": {"conditions": "1 mg/kg oral of administered compound"}, "[8]": {"conditions": "3 mg/kg oral of administered compound"}, "[9]": {"conditions": "10 mg/kg oral of administered compound"}}, "data": [{"smiles": "CN(C)CCc1c[nH]c2cccc(OC(=O)OCc3ccccc3)c12", "note": "[B(II), reference compound]", "values": [{"measurement": "Plasma concentration of psilocin", "setting": "[1]; 1 mg/kg oral of administered compound, 0.25 h", "result": "19.7 ± 5.50", "unit": "ng/mL"}, {"measurement": "Plasma concentration of psilocin", "setting": "[1]; 1 mg/kg oral of administered compound, 0.5 h", "result": "11.9 ± 2.03", "unit": "ng/mL"}, {"measurement": "Plasma concentration of psilocin", "setting": "[1]; 1 mg/kg oral of administered compound, 1 h", "result": "4.63 ± 0.788", "unit": "ng/mL"}, {"measurement": "Plasma concentration of psilocin", "setting": "[1]; 1 mg/kg oral of administered compound, 2 h", "result": "2.20 ± 0.850", "unit": "ng/mL"}, {"measurement": "Plasma concentration of psilocin", "setting": "[1]; 1 mg/kg oral of administered compound, 4 h", "result": "2.05 ± 0.359", "unit": "ng/mL"}, {"measurement": "Plasma concentration of psilocin", "setting": "[1]; 1 mg/kg oral of administered compound, 6 h", "result": "0.739 ± 0.288", "unit": "ng/mL"}, {"measurement": "Plasma concentration of psilocin", "setting": "[1]; 1 mg/kg oral of administered compound, 8 h", "result": "0.453 ± 0.0460", "unit": "ng/mL"}, {"measurement": "AUC0-tlast/Dose (plasma psilocin)", "setting": "[1]; [7]", "result": "21.0 ± 1.55", "unit": "kg·ng·h/mL/mg"}, {"measurement": "Cmax/Dose (plasma psilocin)", "setting": "[1]; [7]", "result": "19.7 ± 5.50", "unit": "kg·ng/mL/mg"}, {"measurement": "Plasma concentration of psilocin", "setting": "[1]; 3 mg/kg oral of administered compound, 0.25 h", "result": "55.6 ± 8.67", "unit": "ng/mL"}, {"measurement": "Plasma concentration of psilocin", "setting": "[1]; 3 mg/kg oral of administered compound, 0.5 h", "result": "32.3 ± 4.98", "unit": "ng/mL"}, {"measurement": "Plasma concentration of psilocin", "setting": "[1]; 3 mg/kg oral of administered compound, 1 h", "result": "9.29 ± 3.05", "unit": "ng/mL"}, {"measurement": "Plasma concentration of psilocin", "setting": "[1]; 3 mg/kg oral of administered compound, 2 h", "result": "7.67 ± 0.921", "unit": "ng/mL"}, {"measurement": "Plasma concentration of psilocin", "setting": "[1]; 3 mg/kg oral of administered compound, 4 h", "result": "6.76 ± 2.13", "unit": "ng/mL"}, {"measurement": "Plasma concentration of psilocin", "setting": "[1]; 3 mg/kg oral of administered compound, 6 h", "result": "2.41 ± 0.845", "unit": "ng/mL"}, {"measurement": "Plasma concentration of psilocin", "setting": "[1]; 3 mg/kg oral of administered compound, 8 h", "result": "0.722 ± 0.368", "unit": "ng/mL"}, {"measurement": "AUC0-tlast/Dose (plasma psilocin)", "setting": "[1]; [8]", "result": "20.3 ± 2.78", "unit": "kg·ng·h/mL/mg"}, {"measurement": "Cmax/Dose (plasma psilocin)", "setting": "[1]; [8]", "result": "18.5 ± 2.89", "unit": "kg·ng/mL/mg"}, {"measurement": "Plasma concentration of psilocin", "setting": "[1]; 10 mg/kg oral of administered compound, 0.25 h", "result": "306 ± 34.6", "unit": "ng/mL"}, {"measurement": "Plasma concentration of psilocin", "setting": "[1]; 10 mg/kg oral of administered compound, 0.5 h", "result": "125 ± 16.3", "unit": "ng/mL"}, {"measurement": "Plasma concentration of psilocin", "setting": "[1]; 10 mg/kg oral of administered compound, 1 h", "result": "49.6 ± 10.5", "unit": "ng/mL"}, {"measurement": "Plasma concentration of psilocin", "setting": "[1]; 10 mg/kg oral of administered compound, 2 h", "result": "20.7 ± 1.42", "unit": "ng/mL"}, {"measurement": "Plasma concentration of psilocin", "setting": "[1]; 10 mg/kg oral of administered compound, 4 h", "result": "31.4 ± 6.34", "unit": "ng/mL"}, {"measurement": "Plasma concentration of psilocin", "setting": "[1]; 10 mg/kg oral of administered compound, 6 h", "result": "11.5 ± 1.43", "unit": "ng/mL"}, {"measurement": "Plasma concentration of psilocin", "setting": "[1]; 10 mg/kg oral of administered compound, 8 h", "result": "6.38 ± 2.98", "unit": "ng/mL"}, {"measurement": "Plasma concentration of psilocin", "setting": "[1]; 10 mg/kg oral of administered compound, 24 h", "result": 0.104, "unit": "ng/mL"}, {"measurement": "AUC0-tlast/Dose (plasma psilocin)", "setting": "[1]; [9]", "result": "28.2 ± 4.12", "unit": "kg·ng·h/mL/mg"}, {"measurement": "Cmax/Dose (plasma psilocin)", "setting": "[1]; [9]", "result": "30.6 ± 3.46", "unit": "kg·ng/mL/mg"}, {"measurement": "metabolic stability / conversion to psilocin (in words)", "setting": "[2]; HLM", "result": "did not readily dissociate to psilocin under any conditions"}, {"measurement": "metabolic stability / conversion to psilocin (in words)", "setting": "[2]; HLS9", "result": "did not readily dissociate to psilocin under any conditions"}, {"measurement": "metabolic stability / conversion to psilocin (in words)", "setting": "[3]", "result": "failed completely to dissociate"}, {"measurement": "Head Twitch Response (in words)", "setting": "[4]", "result": "elicit head twitching"}]}, {"smiles": "CN(C)CCc1c[nH]c2cccc(O)c12", "note": "[psilocin]", "values": [{"measurement": "cAMP level / 5-HT1A receptor modulation (in words)", "setting": "[5]", "result": "reduction in cAMP levels"}, {"measurement": "5-HT2A competition binding (in words)", "setting": "[6]", "result": "positive control (binding)"}]}]}
